Data on two molecules can be found in paper PMC9146934 (Membranes, 2022).

Several values for one entry are separate records, joined by “and”; a condition that tells them apart may be missing. Equal values may be shown once. Read-outs that look alike come from different tables or passages of the source.

The target in one assay is T1, Vd-RDL1 GABAr (Varroa destructor, UniProt A0A343W7T5).
T1 sequence (A0A343W7T5 35-585): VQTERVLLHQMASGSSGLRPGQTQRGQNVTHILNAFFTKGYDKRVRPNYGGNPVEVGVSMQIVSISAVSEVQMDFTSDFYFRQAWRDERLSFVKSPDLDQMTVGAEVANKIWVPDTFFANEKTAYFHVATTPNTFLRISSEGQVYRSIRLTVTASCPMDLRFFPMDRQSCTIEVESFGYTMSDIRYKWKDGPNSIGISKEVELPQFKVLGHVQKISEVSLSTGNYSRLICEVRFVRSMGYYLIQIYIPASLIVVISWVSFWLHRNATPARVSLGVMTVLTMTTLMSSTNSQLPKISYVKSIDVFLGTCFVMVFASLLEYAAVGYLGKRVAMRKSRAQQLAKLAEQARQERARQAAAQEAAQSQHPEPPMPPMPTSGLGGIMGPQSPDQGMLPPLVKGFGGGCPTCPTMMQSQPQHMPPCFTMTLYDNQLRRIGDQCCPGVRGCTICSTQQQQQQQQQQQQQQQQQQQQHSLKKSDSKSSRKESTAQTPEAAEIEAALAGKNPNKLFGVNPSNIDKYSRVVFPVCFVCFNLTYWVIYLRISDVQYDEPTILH
The assay can be described thus: Two-electrode voltage-clamp of GABA-induced currents, Vd-RDL1 expressed in Xenopus laevis oocytes. In kind it is cell-based. The method, then: (§1) cRNAs were in vitro synthesized from linearized plasmids using the M-message M-machine transcription kit (Thermo Fisher, Waltham, MA USA) following the manufacturer’s instructions. The cRNA concentration was adjusted to 1 µg/µL. Preparation and injection of X. laevis oocytes were completed as previously described. The oocytes were injected with 30 nL of a solution containing the cRNA of interest. Injected oocytes were maintained at 19 °C in a survival solution containing (in mM): NaCl, 96; KCl, 2; CaCl2, 1.8; MgCl2, 1; Hepes, 5; Na-pyruvate, 2.5; and gentamycin, 0.025, pH = 7.2 with NaOH, renewed daily.
(§2) Expressed currents were recorded at room temperature using the two-electrode voltage-clamp method 1–3 days after injection. Electrodes were pulled from borosilicate glass (Warner, ref GC150T10) and filled with 3 M KCl. […] Drugs were applied using a gravity-driven perfusion system at a speed of 2 mL/min.
(§3) Oocytes were perfused with the following ND solution (in mM): NaCl, 96; KCl, 3; CaCl2, 0.5; MgCl2, 1; HEPES, 5, with pH set at 7.4 with NaOH at ~1 mL/min. The reversal potential of the Ap-RDL receptor was measured in solutions containing (in mM): NaCl, Na-acetate or TEACl (tetraethylammonium chloride), 100; HEPES, 5 with pH set at 7.4, with NaOH or TEAOH. […] Fipronil or picrotoxin were dissolved at the final concentrations from stock solutions in DMSO (dimethylsulfoxide) at 200 and 10 mM, respectively. The final DMSO concentration was always less than 0.2%.
(§4) With Rel.Cur. the current amplitude at each concentration relative to the current recorded in the absence of antagonist; IC50, the concentration for half-maximum inhibition, log ([Inhib]) the logarithm of the inhibitor concentration, and p a slope factor.
(§5) With t, the time of the recording; Rel.Cur., the current amplitude at each concentration relative to the current recorded in the absence of antagonist; Amp, the amplitude of the exponential, Tau Block, the time constant of the exponential, and R the residual non-inhibited current at the steady-state of the effects. The relative block (Rel.B) is estimated as 1-R expressed in %.
For orientation: Two-electrode voltage clamp holds a large cell at a set potential and records current.

Another assay deals with A. pisum RDL1ad. Particulars: read-out: IC50 for fipronil; cited from earlier work.
In another assay the target is T2, Am-RDL GABAr (Apis mellifera, UniProt A0A8U0Y4W2).
T2 sequence (A0A8U0Y4W2 19-476): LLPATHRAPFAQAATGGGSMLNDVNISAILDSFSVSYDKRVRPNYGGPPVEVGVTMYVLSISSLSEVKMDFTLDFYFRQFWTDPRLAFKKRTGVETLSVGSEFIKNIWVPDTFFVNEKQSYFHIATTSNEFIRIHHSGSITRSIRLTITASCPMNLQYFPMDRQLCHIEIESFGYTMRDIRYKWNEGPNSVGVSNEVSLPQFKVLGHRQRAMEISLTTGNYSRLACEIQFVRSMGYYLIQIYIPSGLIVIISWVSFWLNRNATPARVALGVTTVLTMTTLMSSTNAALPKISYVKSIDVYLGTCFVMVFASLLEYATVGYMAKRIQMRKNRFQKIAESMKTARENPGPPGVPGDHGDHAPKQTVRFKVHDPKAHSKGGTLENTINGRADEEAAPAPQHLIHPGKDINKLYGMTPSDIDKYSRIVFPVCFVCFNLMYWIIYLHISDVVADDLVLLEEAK
In words: Two-electrode voltage-clamp of GABA-induced currents, Am-RDL expressed in Xenopus laevis oocytes. It counts as cell-based. How it is done:
as §1, §2, §3, §4, §5

Assay [1] has as its target T3, Hs-α2β2γ2 GABA-A receptor (Homo sapiens, UniProt P18507+P47869+P47870).
T3 construct: expressed in transfected cells; host or cells: Xenopus laevis oocytes (cRNA injection)
In words: cell-based. In kind it is cell-based. Particulars: IC50 (inhibition of the GABA response), GABA 100 µM, inhibitor co-applied. The method, then:
as §1, §2, §3, §4, §5

The next assay deals with T4, Vd-RDL2 GABAr (Varroa destructor, UniProt A0A3G3MDS2).
T4 sequence (A0A3G3MDS2 20-661): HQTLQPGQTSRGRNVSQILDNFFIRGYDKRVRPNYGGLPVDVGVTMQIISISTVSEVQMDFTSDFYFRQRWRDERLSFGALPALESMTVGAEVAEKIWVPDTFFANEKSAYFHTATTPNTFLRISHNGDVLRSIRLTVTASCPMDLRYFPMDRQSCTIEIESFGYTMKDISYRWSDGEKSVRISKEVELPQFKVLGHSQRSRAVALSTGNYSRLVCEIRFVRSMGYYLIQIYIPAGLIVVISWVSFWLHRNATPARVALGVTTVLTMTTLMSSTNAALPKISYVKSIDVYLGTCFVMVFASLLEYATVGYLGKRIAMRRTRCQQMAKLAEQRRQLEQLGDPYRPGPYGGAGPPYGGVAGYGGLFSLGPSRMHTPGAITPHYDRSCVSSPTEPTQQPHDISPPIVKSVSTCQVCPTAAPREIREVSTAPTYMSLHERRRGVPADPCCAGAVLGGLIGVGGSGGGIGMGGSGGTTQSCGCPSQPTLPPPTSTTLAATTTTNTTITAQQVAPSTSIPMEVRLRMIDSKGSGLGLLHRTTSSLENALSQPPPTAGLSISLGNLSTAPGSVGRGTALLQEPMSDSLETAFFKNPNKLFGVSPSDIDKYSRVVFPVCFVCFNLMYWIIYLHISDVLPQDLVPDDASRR
In words: Two-electrode voltage-clamp of GABA-induced currents, Vd-RDL2 expressed in Xenopus laevis oocytes. Conditions: IC50 (inhibition of the GABA response), GABA 100 µM, inhibitor co-applied. In kind it is cell-based. How it is done: as §1, §2, §3, §4, §5

A further assay deals with T5, Ap-RDL1 GABAr (Acyrthosiphon pisum, UniProt A0A385J708, C18R).
T5 sequence (A0A385J708 33-567 C18R): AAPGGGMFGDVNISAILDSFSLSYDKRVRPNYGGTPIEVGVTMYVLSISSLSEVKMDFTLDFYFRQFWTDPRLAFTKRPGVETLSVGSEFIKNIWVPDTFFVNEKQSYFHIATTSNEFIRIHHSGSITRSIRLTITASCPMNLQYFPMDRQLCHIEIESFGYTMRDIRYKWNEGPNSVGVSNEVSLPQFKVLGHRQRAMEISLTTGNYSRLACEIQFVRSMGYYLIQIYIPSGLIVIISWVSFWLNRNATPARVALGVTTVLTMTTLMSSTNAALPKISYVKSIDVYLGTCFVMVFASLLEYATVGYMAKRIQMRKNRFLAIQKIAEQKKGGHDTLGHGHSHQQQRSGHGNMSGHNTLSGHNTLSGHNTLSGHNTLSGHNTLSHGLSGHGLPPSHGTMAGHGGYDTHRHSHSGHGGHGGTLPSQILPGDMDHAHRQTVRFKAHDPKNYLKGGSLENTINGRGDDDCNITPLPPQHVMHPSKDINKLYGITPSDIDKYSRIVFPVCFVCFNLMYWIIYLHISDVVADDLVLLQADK
The assay can be described thus: Two-electrode voltage-clamp of GABA-induced currents, Ap-RDL1 expressed in Xenopus laevis oocytes. In kind it is cell-based. Conditions: IC50 (inhibition of the GABA response), GABA 100 µM, inhibitor co-applied. How it is done: as §1, §2, §3, §4, §5

The test system of a further assay is A. pisum RDL2b. Conditions: text prints the receptor as Ap-RDL2; read-out: IC50 for fipronil; cited from earlier work.
The target in the next assay is T6, Vd-RDL3 GABAr (Varroa destructor, UniProt A0A343W7T7).
T6 sequence (A0A343W7T7 31-591): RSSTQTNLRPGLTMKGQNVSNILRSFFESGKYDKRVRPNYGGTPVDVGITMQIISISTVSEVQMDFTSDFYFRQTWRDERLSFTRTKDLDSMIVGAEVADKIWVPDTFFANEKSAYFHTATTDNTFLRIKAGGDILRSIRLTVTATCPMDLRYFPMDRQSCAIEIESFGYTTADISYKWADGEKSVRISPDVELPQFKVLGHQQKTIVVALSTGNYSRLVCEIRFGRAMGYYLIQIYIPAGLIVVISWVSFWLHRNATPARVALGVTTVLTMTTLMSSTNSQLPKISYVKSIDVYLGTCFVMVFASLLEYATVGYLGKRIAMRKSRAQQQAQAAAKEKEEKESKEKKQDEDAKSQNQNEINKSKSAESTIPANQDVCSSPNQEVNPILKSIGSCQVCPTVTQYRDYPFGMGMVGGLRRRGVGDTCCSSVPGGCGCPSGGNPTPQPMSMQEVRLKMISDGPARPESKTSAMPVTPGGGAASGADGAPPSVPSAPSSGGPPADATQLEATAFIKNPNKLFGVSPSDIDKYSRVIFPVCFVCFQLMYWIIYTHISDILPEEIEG
The assay can be described thus: Two-electrode voltage-clamp of GABA-induced currents, Vd-RDL3 expressed in Xenopus laevis oocytes. In kind it is cell-based. The method, then:
as §1, §2, §3, §4, §5

The next assay has as its system A. pisum RDL1bd. Particulars: text prints the receptor as Ap-RDL1; read-out: IC50 for fipronil; cited from earlier work.
In a further assay the test system is Hs-α1β2γ2. Conditions: read-out: IC50 for fipronil; cited from earlier work.

T3 sequence (P47869 29-451): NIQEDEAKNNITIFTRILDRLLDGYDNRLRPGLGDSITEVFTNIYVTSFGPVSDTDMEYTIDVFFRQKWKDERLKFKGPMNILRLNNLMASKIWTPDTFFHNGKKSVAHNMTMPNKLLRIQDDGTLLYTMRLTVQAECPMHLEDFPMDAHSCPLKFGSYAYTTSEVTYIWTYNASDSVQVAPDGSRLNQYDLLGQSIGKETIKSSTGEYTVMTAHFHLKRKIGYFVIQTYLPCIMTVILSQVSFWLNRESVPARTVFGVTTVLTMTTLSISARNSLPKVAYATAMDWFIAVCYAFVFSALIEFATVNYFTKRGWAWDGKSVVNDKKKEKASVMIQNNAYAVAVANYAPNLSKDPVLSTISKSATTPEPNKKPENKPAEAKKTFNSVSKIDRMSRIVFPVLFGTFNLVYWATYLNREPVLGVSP
T3 sequence (P47870 25-512 limits assumed): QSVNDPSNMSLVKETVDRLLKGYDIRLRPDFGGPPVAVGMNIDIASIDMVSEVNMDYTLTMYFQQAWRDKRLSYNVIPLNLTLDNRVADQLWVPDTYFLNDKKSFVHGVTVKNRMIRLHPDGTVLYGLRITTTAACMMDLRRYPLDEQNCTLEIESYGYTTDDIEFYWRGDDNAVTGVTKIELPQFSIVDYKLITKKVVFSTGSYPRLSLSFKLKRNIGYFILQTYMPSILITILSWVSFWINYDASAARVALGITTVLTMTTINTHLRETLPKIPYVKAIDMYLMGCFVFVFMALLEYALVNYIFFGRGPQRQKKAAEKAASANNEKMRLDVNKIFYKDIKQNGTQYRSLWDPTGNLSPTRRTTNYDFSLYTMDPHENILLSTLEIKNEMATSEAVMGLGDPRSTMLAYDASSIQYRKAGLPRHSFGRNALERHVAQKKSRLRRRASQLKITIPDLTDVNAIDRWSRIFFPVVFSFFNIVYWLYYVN
T3 sequence (P18507 40-475): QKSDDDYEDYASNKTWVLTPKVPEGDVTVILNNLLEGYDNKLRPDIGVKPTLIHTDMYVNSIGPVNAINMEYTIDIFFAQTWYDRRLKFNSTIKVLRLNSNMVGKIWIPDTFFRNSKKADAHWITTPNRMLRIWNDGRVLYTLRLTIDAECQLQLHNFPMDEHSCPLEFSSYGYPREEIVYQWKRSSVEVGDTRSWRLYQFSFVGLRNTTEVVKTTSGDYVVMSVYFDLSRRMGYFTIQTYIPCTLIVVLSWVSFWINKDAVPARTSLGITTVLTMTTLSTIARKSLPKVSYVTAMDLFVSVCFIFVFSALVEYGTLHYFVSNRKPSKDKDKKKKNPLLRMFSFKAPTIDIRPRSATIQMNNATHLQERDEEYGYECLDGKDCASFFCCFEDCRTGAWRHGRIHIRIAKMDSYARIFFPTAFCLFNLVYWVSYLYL

As for `N#Cc1nn(-c2c(Cl)cc(C(F)(F)F)cc2Cl)c(N)c1[S+]([O-])C(F)(F)F` (centres unmarked) [fipronil], the IC50 – broadly, the point on the concentration scale where inhibition reaches its midpoint – was more than 500000 nM against Vd-RDL1 GABAr; 640 ± 150 nM in the assay with A. pisum RDL1ad; 70 ± 200 nM on Am-RDL GABAr; 1880 nM and 300 to 3000 nM and 1800 nM in assay [1]; 770 nM and 300 to 3000 nM at Vd-RDL2 GABAr; 310 nM and 300 to 3000 nM at Ap-RDL1 GABAr. For the same molecule, the IC50 with A. pisum RDL2b was 720 ± 200 nM; at Vd-RDL3 GABAr it was 3640 ± 1740 nM; with A. pisum RDL1bd, 180 ± 100 nM; in the assay with Hs-α1β2γ2, 1100 ± 200 nM. For the same molecule, at Vd-RDL1 GABAr (fipronil 30 µM, GABA 100 µM), the “block of GABA response by fipronil” value is given as “almost no block”.
In the case of picrotoxin, at Vd-RDL1 GABAr (GABA 100 µM), the sensitivity to picrotoxin result is “insensitive”. Besides, the “block of GABA response by picrotoxin” value on Vd-RDL1 GABAr (picrotoxin 100 µM, GABA 100 µM) was 20%. The half-inhibitory concentration (IC50) at Vd-RDL1 GABAr (read-out: IC50 (inhibition of the GABA response), GABA 100 µM, inhibitor co-applied) was more than 500000 nM.
